Results from PubChem BioAssay AID743267 (Broad Institute, 2014).

System: human bronchial epithelial cells, CFTR corrector, plate reader
Assay: CFTR ΔF508 corrector activity in bronchial cells, dose response, human bronchial epithelial cells, plate reader, cherry-pick, two tests (AID 743267)
Settings: measured here: test 2 replicate run

| SMILES | AC50 [µM] |
| --- | --- |
| O=C(NCCN1C(=O)S/C(=C\c2ccc(OC(F)F)cc2)C1=O)c1cnccn1 | 1.85 |
| COc1ccc(NS(=O)(=O)c2cc(NC(=O)Cc3c(F)cccc3Cl)ccc2OC)cc1 | 0.827 |
| Cc1ccc(S(=O)(=O)NCc2ccccc2)cc1C(=O)N1CC(C)CC(C)C1 (stereo not drawn) | > 50 |
| Cc1ccc2cc(CN(CC3CCCO3)C(=S)Nc3ccccc3)c(=O)[nH]c2c1C (stereo not drawn) | 3.16 |
| CCOc1ccc(C(=O)COC(=O)Cc2n[nH]c(=O)c3ccccc23)cc1 | 2.53 |
| O=S(=O)(Cc1ccc(Cl)cc1Cl)c1ccc(Cl)cc1 | 2.72 |
| Cc1cc(NCc2ccccn2)n2ncc(-c3ccccc3)c2n1 | 15.9 |
| O=C(NCc1ccccc1)C1Cc2c(-c3ccc(Cl)cc3)ccnc2O1 (stereo not drawn) | 2.18 |
| C[C@@H]1O[C@@H](O[C@@H]2C=C3CC[C@@H]4C(CC[C@]5(C)[C@@H](c6ccc(=O)oc6)CC[C@]45O)[C@@]3(C)CC2)[C@H](O)[C@H](O)[C@H]1O (stereo partly drawn) | 1.42 |
| O=C1NC(=Nc2cccnc2)S/C1=C/c1ccc(F)cc1 | 9.27 |
| C/C(=N\Nc1ncnc2sc(C)c(C)c12)c1ccccn1 | 0.589 |
| N#CCC(=O)N/N=C/c1cn(Cc2cccc3ccccc23)c2ccccc12 | 2.86 |
| CC1CN(S(=O)(=O)c2cccc(C(=O)Nc3cc(Cl)ccc3N3CCOCC3)c2)CC(C)O1 (stereo not drawn) | > 50 |
| CCN[C@H]1CN(CCCOC)S(=O)(=O)c2sc(S(N)(=O)=O)cc21 | 0.0398 |
| CCOC(=O)c1[nH]c(C)c(/C(O)=C2\C(=O)C(=O)N(CCCN3CCOCC3)C2c2cccs2)c1C (stereo not drawn) | 19.4 |
| COc1ccccc1NS(=O)(=O)c1cc(-c2cnc(C3CC3)o2)ccc1C | 9.51 |
| COc1ccc(Nc2nc(-c3sc(C)nc3C)cs2)c(OC)c1 | 12.3 |
| COC(=O)Cn1c(=NC(=O)c2cc(-c3cccs3)nc3ccccc23)sc2cc(S(N)(=O)=O)ccc21 | > 50 |
| COc1ccc(-c2cc(=O)c3c(O)cc(O)cc3o2)cc1 | > 50 |
| CC(OC(=O)CCCC(=O)Nc1ccc(F)cc1)C(=O)c1ccccc1 (stereo not drawn) | > 50 |
| CC(Sc1nc2ccccc2c(=O)n1C)C(=O)Nc1ccc2c(c1)OCCO2 (stereo not drawn) | > 50 |
| O=C(N/N=C/c1cccs1)c1cc(C2CC2)nc2ccccc12 | 6.27 |
| CCN(CC)CCn1nc2c3c(cccc3c1=O)-c1ccccc1-2 | 1.1 |
| COc1ccc(Cl)cc1NC(=O)CN(C)CC(=O)Nc1cc(OC)c(OC)c(OC)c1 | 8.47 |
| COc1ccc([N+](=O)[O-])cc1Nc1c2ccccc2nc2ccccc12 | 2.62 |
| O=C1c2cccc3c([N+](=O)[O-])ccc(c23)C(=O)N1Cc1cccnc1 | 10.2 |
| CCN(CC(=O)Nc1c(F)cccc1F)C(=O)C1CC1 | 33.1 |

| SMILES | AC50 [µM] |
| --- | --- |
| CCN(CC)CCCNc1nc2ccccc2c2nc(-c3ccncc3)nn12 | 6.34 |
| CCSc1nnc(N2C(=O)C(O)=C(C(=O)c3ccco3)C2c2cccc(OC)c2)s1 (stereo not drawn) | > 50 |
| Cc1nn(S(=O)(=O)c2ccc(Cl)cc2)c(C)c1Sc1ccc([N+](=O)[O-])cc1 | > 32 |
| COCCCNc1nnc(Cc2ccc(Cl)cc2)c(=O)[nH]1 | 3.78 |
| Cc1ccc(OCCNC(=O)c2cccc(S(=O)(=O)NCc3ccccc3)c2)cc1 | 1.64 |
| COc1cc(-c2cnc3c(NC=O)cc(-c4cccc(C(F)(F)F)c4)cn23)cc(OC)c1OC | 7.05 |
| CCOc1ccccc1N1CCN(C(=O)c2cc3ccccc3cc2OC)CC1 | 3.45 |
| COc1ccc(OC)c2[nH]c(C(=O)N/N=C/c3ccccc3O)cc12 | 2.6 |
| CC(=O)c1cccc(Nc2c3c(nc4ccccc24)CCC3)c1 | 2.69 |
| CC1=Nc2cc(C(=O)NCC3CCCO3)ccc2Sc2ccc(C)cc21 (stereo not drawn) | 2.57 |
| Cc1cccc(N(C)C(=O)c2cc3c(=O)[nH]c4ccc(C)cc4c3s2)c1 | 4.72 |
| Cc1ccc(S(=O)(=O)N2CCOCC2)cc1NC(=O)CSc1n[nH]c(N)n1 | > 50 |
| CC(C)(C)C1COc2ccccc2N1C(=O)c1cccc(Cl)c1 (stereo not drawn) | 1.63 |
| CC1(C(=O)NCc2cccs2)Cc2c(-c3ccc4c(c3)OCO4)ccnc2O1 (stereo not drawn) | 2.69 |
| COc1ccccc1C1CC(=O)Nc2cc3c(cc21)OCCO3 (stereo not drawn) | 1.96 |
| Cc1nnc(NC(=O)CSc2nccn2-c2cccc(C)c2C)s1 | 7.08 |
| N#CC1c2ccccc2-c2ccccc2N1C(=O)c1ccccc1 (stereo not drawn) | 4.85 |
| Cc1nn2cc(-c3cccc(Cl)c3)cnc2c1Br | 3.81 |
| COc1ccc(S(=O)(=O)Cc2ccc(C(=O)N3CCN(c4cccc(C)c4)C(C)C3)o2)cc1 (stereo not drawn) | 3.68 |
| COc1ccc(OC)c(C2CC(c3ccccc3)=NN2C(=S)Nc2ccccc2)c1 (stereo not drawn) | 8.44 |
| CN(C)S(=O)(=O)c1ccc2c(c1)/C(=C/c1cc3c([nH]1)CCCC3)C(=O)N2 | 6.59 |
| COc1ccc(-c2cc(NC=O)c3ncc(-c4ccc(OC)c(OC)c4)n3c2)cc1 | 22.3 |
| COc1cc(C2CC(=O)N(c3ccc(C)cc3)C(=O)C2)cc(OC)c1OC | 2.37 |
| O=C(CSC1=NCCN1)Nc1cccc([N+](=O)[O-])c1 | 14.1 |
| COCCOC(=O)c1[nH]c2c(c1C)C(=O)CC(c1cccs1)C2 (stereo not drawn) | 4.16 |
| COc1ccc(OC)c(-c2cc(-c3cccnc3)nc(N)c2C#N)c1 | 2.43 |
